According to ChEMBL document CHEMBL2331407, “Mexican antidiabetic herbs: valuable sources of inhibitors of α-glucosidases” (J Nat Prod, 2013):
pIC50, pKi: −log10 of the molar value. ≈ marks a conversion by molar mass, not a printed value.

Experiments:
[1] = Inhibition of rat intestinal alpha-glucosidase
[2] = target: T1, Alpha-glucosidase MAL12 (Saccharomyces cerevisiae S288c, UniProt P53341); assay: (§1) Inhibition of baker's yeast alpha-glucosidase
[3] = test system: alpha-glucosidase (Rattus norvegicus); assay: Inhibition of rat intestinal alpha-glucosidase; design: concentration or dose not given beside the values; settings: concentration not given here
[4] = target: alpha-glucosidase (Mus musculus); assay: Inhibition of alpha-glucosidase from mouse intestine crude homogenate
[5] = target: Oligo-1,6-glucosidase IMA1 (Saccharomyces cerevisiae S288c) (UniProt P53051); assay: as §1
Chain of Oligo-1,6-glucosidase IMA1 (Saccharomyces cerevisiae S288c) (P53051 whole entry): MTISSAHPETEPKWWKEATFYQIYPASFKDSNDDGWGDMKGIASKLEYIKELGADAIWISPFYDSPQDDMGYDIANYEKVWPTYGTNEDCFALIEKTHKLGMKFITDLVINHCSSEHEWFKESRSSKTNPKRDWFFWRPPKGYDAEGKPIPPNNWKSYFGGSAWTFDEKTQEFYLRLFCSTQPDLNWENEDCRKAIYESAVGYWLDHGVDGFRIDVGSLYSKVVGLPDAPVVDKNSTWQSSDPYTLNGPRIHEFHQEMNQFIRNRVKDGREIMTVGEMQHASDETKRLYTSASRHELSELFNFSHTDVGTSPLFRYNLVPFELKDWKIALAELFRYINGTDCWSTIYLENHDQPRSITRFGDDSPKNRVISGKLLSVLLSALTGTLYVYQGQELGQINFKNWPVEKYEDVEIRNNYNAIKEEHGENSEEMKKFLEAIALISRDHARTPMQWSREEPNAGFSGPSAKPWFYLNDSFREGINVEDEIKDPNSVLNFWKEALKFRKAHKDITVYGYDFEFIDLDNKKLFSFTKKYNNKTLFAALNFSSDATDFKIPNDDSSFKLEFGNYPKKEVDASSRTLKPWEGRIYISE

[6] = target: T1, Alpha-glucosidase MAL12; assay: Mixed type inhibition of baker's yeast alpha-glucosidase by Dixon plot analysis
[7] = species: Rattus norvegicus; assay: Gastroprotective activity in rat assessed as protection against ethanol-induced gastric injury; type: functional, Stomach; settings: for ED50: Rattus norvegicus, Stomach

T1 sequence (P53341 whole entry): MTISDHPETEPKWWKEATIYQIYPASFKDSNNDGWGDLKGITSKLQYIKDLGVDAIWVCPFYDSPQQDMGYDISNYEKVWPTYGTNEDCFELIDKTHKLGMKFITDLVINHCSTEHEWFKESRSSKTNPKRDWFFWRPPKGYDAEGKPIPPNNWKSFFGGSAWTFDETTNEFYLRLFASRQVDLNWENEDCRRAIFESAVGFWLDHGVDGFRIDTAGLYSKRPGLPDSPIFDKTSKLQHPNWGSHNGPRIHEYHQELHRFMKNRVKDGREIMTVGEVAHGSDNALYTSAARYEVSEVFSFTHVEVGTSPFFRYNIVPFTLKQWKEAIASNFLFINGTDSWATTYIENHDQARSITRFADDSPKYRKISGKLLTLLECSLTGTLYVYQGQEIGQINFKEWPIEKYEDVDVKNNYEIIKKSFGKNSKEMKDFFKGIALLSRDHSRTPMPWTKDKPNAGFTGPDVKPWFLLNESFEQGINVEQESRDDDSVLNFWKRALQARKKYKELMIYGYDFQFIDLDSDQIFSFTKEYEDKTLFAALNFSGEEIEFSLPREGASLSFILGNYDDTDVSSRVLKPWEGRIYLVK

pIC50 [2]	inhibition [3]	Structure (SMILES)	also measured
–	–	COc1cc(/C=C/C(=O)OC[C@H]2O[C@@H](O[C@H]3[C@H](Oc4cc5c(O[C@@H]6O[C@H](CO)[C@@H](O)[C@H](O)[C@H]6O)cc(O)cc5[o+]c4-c4ccc(O)c(O)c4)O[C@H](COC(=O)/C=C/c4ccc(O)c(O)c4)[C@@H](O)[C@@H]3O)[C@H](O)[C@@H](O)[C@@H]2O)ccc1O	pIC50 [1]: 3.71
3.55	–	C=C1C(=O)O[C@@H]2C[C@@H](C)/C=C\C(=O)[C@](C)(O)[C@H](OC(C)=O)[C@@H](OC(=O)/C(C)=C/C)[C@@H]12 [CALEIN C]	–
–	11.5%	COC(C)(C)/C=C/C[C@@H](C)[C@H]1CC[C@@]2(C)[C@@H]3C=C[C@@]45OC[C@]3(CC[C@]12C)[C@@H]4CC[C@H](O[C@@H]1O[C@H](CO)[C@@H](O)[C@H](O)[C@H]1O)C5(C)C	–
–	–	COc1cc(/C=C/C(=O)OC[C@H]2O[C@@H](O[C@H]3[C@H](Oc4cc5c(O[C@@H]6O[C@H](CO)[C@@H](O)[C@H](O)[C@H]6O)cc(O)cc5[o+]c4-c4ccc(O)c(OC)c4)O[C@H](COC(=O)/C=C/c4ccc(O)c(O)c4)[C@@H](O)[C@@H]3O)[C@H](O)[C@@H](O)[C@@H]2O)ccc1O	pIC50 [1]: 3.70
–	18.6%	CC(C)=C[C@H](O[C@@H]1O[C@H](CO)[C@@H](O)[C@@H](O)[C@H]1O)[C@@H](O)[C@@H](C)[C@H]1CC[C@@]2(C)[C@@H]3C=C[C@@]45OC[C@]3(CC[C@]12C)[C@@H]4CC[C@H](O[C@@H]1O[C@H](CO)[C@@H](O)[C@H](O)[C@H]1O)C5(C)C	–
–	15.8%	CO[C@H]1C=C2[C@@H](CC[C@H](O[C@@H]3O[C@H](CO)[C@@H](O)[C@@H](O)[C@H]3O)C2(C)C)[C@]2(C)CC[C@]3(C)[C@@H]([C@H](C)C/C=C/C(C)(C)O)CC[C@@]3(C)[C@H]12	–
–	–	CC(C)=CC(=O)O[C@H]1C[C@@H](O)[C@@]2(C)CO[C@H]3[C@@H](O)[C@@]4(C)C5=CC[C@@H](c6ccoc6)[C@]5(C)CC[C@@H]4[C@]1(C)[C@@H]32 [MELIACINOLIN]	IC50 [4]: 32.18 µg/mL (≈ 63 µM)
–	13.6%	COC(C)(C)/C=C/C[C@@H](C)[C@H]1CC[C@@]2(C)[C@@H]3CC[C@@]45OC(=O)[C@]3(CC[C@]12C)[C@@H]4CC[C@H](O[C@@H]1O[C@H](CO)[C@@H](O)[C@@H](O)[C@H]1O)C5(C)C	–
3.68	–	O=c1cc(-c2ccc(O)c(O)c2)c2c(O)cc(O)cc2o1	inhibition [5]: Dose-dependent effect
4.21	–	COc1cc(O)c2c(-c3ccc(O)c(O)c3)cc(=O)oc2c1	inhibition [5]: Dose-dependent effect
–	–	COc1cc(O[C@@H]2O[C@H](CO[C@@H]3OC[C@](O)(CO)[C@H]3O)[C@@H](O)[C@H](O)[C@H]2O)c2c(-c3ccc(O)c(O)c3)cc(=O)oc2c1	Activity [7]: 68.85%; ED50 [7]: 15 mg/kg
3.38	–	CC1(C)C=Cc2c(ccc(C(=O)CO)c2O)O1	–
–	10.1%	C[C@H](C/C=C/C(C)(C)O)[C@H]1CC[C@@]2(C)[C@@H]3C=C[C@@]45OC[C@]3(CC[C@]12C)[C@@H]4CC[C@H](O[C@@H]1O[C@H](CO)[C@@H](O)[C@H](O)[C@H]1O)C5(C)C	–
–	13%	C[C@H](CC(O)C(O)C(C)(C)O)[C@H]1CC[C@@]2(C)[C@@H]3CC=C4[C@@H](CC[C@H](O[C@@H]5O[C@H](CO[C@@H]6O[C@H](CO)[C@@H](O)[C@H](O)[C@H]6O)[C@@H](O)[C@H](O)[C@H]5O)C4(C)C)[C@]3(C)CC[C@]12C (stereo partly specified)	–
–	–	O=C(/C=C/c1ccc(O)c(O)c1)O[C@@H]1C[C@](O)(C(=O)O)C[C@@H](O)[C@H]1O [CHLOROGENIC ACID]	Activity [7]: 74.04%; ED50 [7]: 26 mg/kg
–	10.9%	CO[C@@H]1O[C@]23C=C[C@@H]4[C@@]1(CC[C@]1(C)[C@@H]([C@H](C)C/C=C/C(C)(C)O)CC[C@@]41C)[C@@H]2CC[C@H](O[C@@H]1O[C@H](CO)[C@@H](O)[C@H](O)[C@H]1O)C3(C)C	–
–	12.5%	C[C@H](C/C=C/C(C)(C)O)[C@H]1CC[C@@]2(C)[C@@H]3C=C[C@@]45OC[C@]3(CC[C@]12C)[C@@H]4CC[C@H](O[C@@H]1O[C@H](CO)[C@@H](O)[C@@H](O)[C@H]1O)C5(C)C	–
–	21.7%	C[C@H]([C@H](O)[C@@H](O)[C@@H](O)C(C)(C)O)[C@H]1CC[C@@]2(C)[C@@H]3CC=C4[C@@H](CC[C@H](O[C@@H]5O[C@H](CO[C@@H]6O[C@H](CO)[C@@H](O)[C@H](O)[C@H]6O)[C@@H](O)[C@H](O)[C@H]5O)C4(C)C)[C@]3(C)CC[C@]12C	–

Structure (SMILES)	pIC50 [2]	inhibition [3]	also measured
COc1cc(-c2oc3cc(O)cc(O)c3c(=O)c2O)ccc1O [ISORHAMNETIN]	3.80	–	–
CCCC=C1OC(=O)c2ccccc21 [(E)-BUTYLIDENEPHTHALIDE]	2.63	–	inhibition [5]: Dose-dependent effect; pKi [6]: 5.31
